Measured values as given in publication PMC11795524, “Melanin-Binding-Based Discovery of Topically Instilled Carbonic Anhydrase Inhibitors for Targeted Delivery and Prolonged Action in the Eye” (Molecular Pharmaceutics, 2025).
Like-named read-outs stand apart in the source and are kept apart here.

Legend:
[1] = In vitro melanin binding by microscale thermophoresis / initial fluorescence (Monolith NT.115 pico); conditions: Appendix table 1, Nano or Pico detector, IF or MST mode, 68% confidence; for Kd: read-out: Melanin binding affinity Kd ± confidence
From the text: Melanin binding of the CAI-II compounds was studied with a Monolith NT.115 pico (NanoTemper Technologies GmbH, Munich, Germany) device using the method of […] et al. […] Otherwise, normalized fluorescence signals and the ratio of relative fluorescence after heating (MST mode) were used. The MST software was used in expert mode to allow heating for 30 s. […] As ligand autofluorescence may interfere with the assay, their autofluorescence values were pretested with the detector used in experiment (nanoblue or pico-red). Fluorescence of the ligand should be below 20% of melanin fluorescence. Sample aggregation and adsorption to the capillaries were used also as exclusion criteria.

[2] = target: recombinant human carbonic anhydrase II; design: method as in earlier work; conditions: stopped flow kinetics protocol; read-out: Ki against hCA II; cited from earlier work
[3] = target: T1, human carbonic anhydrase II (Homo sapiens, UniProt P00918); test: Multiparametric surface plasmon resonance (MP-SPR) interaction kinetics with immobilized hCAII; assay type: binding
T1 construct: purchased Sigma
Experimental: All MP-SPR measurements were conducted at 25 °C using carboxymethyl dextran hydrogel-coated (CMD-3DM) sensors (BioNavis) and were based on the protocol described by Rogez-Florent et al.[22]
Human carbonic anhydrase isoenzyme II (Sigma) was immobilized using a standard amine coupling procedure with the Amine Coupling Kit (BioNavis) and phosphate buffered saline (PBS) (20 mM phosphate buffer, 150 mM NaCl, pH 7.4) as the background buffer. Before immobilization, the sensor surface was cleaned with 2 M sodium chloride and 10 mM sodium hydroxide for 6 min at a flow rate of 30 μL/min. Then, a constant flow rate of 10 μL/min was maintained throughout the immobilization steps. The surface was activated for 7 min with 200 mM 1-ethyl-3-(3-(dimethylamino)propyl)-carbodiimide (EDC) and 50 mM N-hydroxysuccinimide, immediately followed by a 5 min injection of 45 μg/mL hCAII solution in 10 mM acetate buffer, pH 5.5. In the reference flow channel, no enzyme was immobilized. Residual activated groups of the dextran matrix were deactivated by a 7 min injection of 1 M ethanolamine HCl, pH 8.3.
For analyzing CAIs, 1% (v/v) DMSO in PBS, pH 7.4, was used as a running buffer. All CAIs were dissolved in 100% DMSO and stored as 50 mM stock solutions. These stock solutions were further diluted with the running buffer and analyzed using a 3-fold (3–1000 nM) dilution series. […] Each analyte was injected at a flow rate of 100 μL/min, with an association time of 2 min and a dissociation time of 10 min. […] Seven concentrations were measured for each CAI per cycle, and a “wash all” step with running buffer was performed at the end of each cycle to minimize the carry over effects. Each CAI were assayed in triplicate across three independent experiments.
The acquired data were processed using MP-SPR Navi Data Viewer software (version 6.7.0.1, BioNavis) employing the weighted centroid method for determining the SPR peak angular position. Signals from the reference flow channel were subtracted from the corresponding signals of the flow channel containing immobilized hCAII. The moment of sample injection was selected as the zero-time point, where both the time and MP-SPR response were set to zero. Processed data were globally fitted to a simple 1:1 interaction model using TraceDrawer software (version 1.9.2, Ridgeview Instruments AB, Sweden) to obtain kinetic parameters.

[4] = MP-SPR, 25 °C, 1:1 model, read-out: KD

Row | Structure (SMILES) | Kd [1] [µM] | Ki [2] [nM] | other results
1 | NS(=O)(=O)c1cccc(-c2nc(-c3cccnc3)no2)c1 [A02] | 78 ± 24 | 0.77 ± 0.08 | 
2 | NS(=O)(=O)c1ccc(-n2nc(-c3ccccc3)ccc2=O)cc1 [A03] | 78 ± 39 | 0.26 ± 0.03 | 
3 | COc1ccc(-c2noc(-c3ccc(S(N)(=O)=O)cc3)n2)cc1OC [A04] | 92 ± 17 | 0.46 ± 0.05 | 
4 | CC(=NNc1ccc(S(N)(=O)=O)cc1)c1nccnc1C [A05] | 97 ± 44 |  | ka ([3]; MP-SPR, 25 °C, 1:1 model): 0.61 ± 0.25 10^6 M^–1 s^–1; kd ([3]; MP-SPR, 25 °C, 1:1 model): 1.70 ± 0.25 10^–2 s^–1; Kd [3, 4]: 0.0315 ± 0.00919 µM
5 | NS(=O)(=O)c1ccc(-n2ncc3ccccc3c2=O)cc1 [A06] | 104 ± 42 | 0.23 ± 0.02 | 
6 | NS(=O)(=O)c1ccc(NN=C(c2cncc(F)c2)C2CC2)cc1 [A07] | 115 ± 85 |  | ka ([3]; MP-SPR, 25 °C, 1:1 model): 0.24 ± 0.05 10^6 M^–1 s^–1; kd ([3]; MP-SPR, 25 °C, 1:1 model): 1.78 ± 0.40 10^–2 s^–1; Kd [3, 4]: 0.0756 ± 0.0112 µM; Kd ([3]; surface plasmon resonance, Appendix table 1, read-out: Kd against hCA II): 0.0756 ± 0.0112 µM
7 | COc1ccc2cnn(-c3ccc(S(N)(=O)=O)cc3)c(=O)c2c1OC [A08] | 142 ± 55 | 3.5 ± 0.4 | 
8 | COc1cc(S(N)(=O)=O)ccc1-c1nc(-c2cccnc2)no1 [A09] | 152 ± 98 | 0.74 ± 0.08 | 
9 | COc1ccc(-c2ccc(=O)n(-c3ccc(S(N)(=O)=O)cc3)n2)cc1 [A10] | 156 ± 101 | 0.08 ± 0.001 | 
10 | Cc1ccccc1-c1noc(-c2ccc(S(N)(=O)=O)cc2)n1 [A11] | 177 ± 56 | 0.42 ± 0.04 | 
11 | NS(=O)(=O)c1ccc(-n2cccn2)cc1 [A13] | 203 ± 367 | 0.072 ± 0.001 | 
12 | Cc1nn(-c2ccc(S(N)(=O)=O)cc2)c(=O)c2ccccc12 [A14] | 205 ± 98 | 0.03 ± 0.01 | 
13 | CC(=NNc1ccc(S(N)(=O)=O)cc1Br)c1cccnc1 [A15] | 230 ± 85 |  | ka ([3]; MP-SPR, 25 °C, 1:1 model): 0.43 ± 0.25 10^6 M^–1 s^–1; kd ([3]; MP-SPR, 25 °C, 1:1 model): 1.25 ± 0.43 10^–2 s^–1; Kd [3, 4]: 0.046 ± 0.0298 µM
14 | NS(=O)(=O)c1ccc(-c2nc(-c3ccc(Oc4ccc(F)cc4)cc3)no2)cc1 [A16] | 451 ± 581 | 48.3 ± 4.8 | 
15 | CC(=NNc1ccc(S(N)(=O)=O)cc1)c1cnc2ccccc2n1 [A17] | 483 ± 137 |  | ka ([3]; MP-SPR, 25 °C, 1:1 model): 0.13 ± 0.05 10^6 M^–1 s^–1; kd ([3]; MP-SPR, 25 °C, 1:1 model): 1.27 ± 0.11 10^–2 s^–1; Kd [3, 4]: 0.113 ± 0.0507 µM
16 | NS(=O)(=O)c1ccc(-c2noc(-c3ccsc3)n2)cc1 [A18] | 520 ± 79 | 44.3 ± 4.4 | 
17 | CC(=NNc1ccc(S(N)(=O)=O)cc1)c1cncc(Br)c1 [A19] | 561 ± 299 |  | ka ([3]; MP-SPR, 25 °C, 1:1 model): 0.15 ± 0.04 10^6 M^–1 s^–1; kd ([3]; MP-SPR, 25 °C, 1:1 model): 2.25 ± 0.02 10^–2 s^–1; Kd [3, 4]: 0.161 ± 0.041 µM
18 | NS(=O)(=O)c1ccc(-n2ncccc2=O)cc1 [A20] |  | 8.2 ± 0.8 | 
19 | NS(=O)(=O)c1ccc2c(c1)Oc1ccccc1C(=O)N2C1CC1 [A21] | 722 ± 1030 | 0.82 ± 0.08 | 
20 | Cc1cc(-n2cccn2)ccc1S(N)(=O)=O [A23] | 957 ± 2010 | 0.008 ± 0.001 | 

Row | Structure (SMILES) | Kd [1] [µM] | Ki [2] [nM] | other results
21 | COc1cc(S(N)(=O)=O)ccc1-c1nc(-c2ccc3c(c2)OC(=O)CN3C)no1 [A24] | 1550 ± 4580 | 48.3 ± 4.8 | 
22 | NS(=O)(=O)c1ccc(-n2nc(-c3ccc(Cl)c(Cl)c3)ccc2=O)cc1 [A25] |  | 74.1 ± 7.4 | 
23 | CC(C)(C)c1ccc(-c2noc(-c3ccc(S(N)(=O)=O)cc3)n2)cc1 [A26] |  | 0.95 ± 0.09 | 
24 | NS(=O)(=O)c1ccc(Cl)c(-n2cccn2)c1 [A27] |  | 0.001 ± 0.001 | 
25 | Cc1cc(C)n(-c2ccc(S(N)(=O)=O)cc2)n1 [A28] |  | 0.004 ± 0.001 | 
26 | NS(=O)(=O)c1ccc(-n2ncc(N3CCc4ccccc4C3)c(Cl)c2=O)cc1 [A29] |  | 60.5 ± 6 | 
27 | Cc1ccc(=O)n(-c2ccc(S(N)(=O)=O)cc2)n1 [A30] |  | 0.68 ± 0.07 | Melanin binding affinity Kd ± confidence [1]: Not detectable
28 | CCn1nc(-c2cc(S(N)(=O)=O)c(C)s2)ccc1=O [B01] | 105 ± 30 | 4.8 ± 0.5 | 
29 | NS(=O)(=O)c1ccc(-c2ncc(C(=O)N3CCNCC3)o2)s1 [B02] | 165 ± 19 | 0.069 ± 0.007 | 
30 | CC(=O)Nc1nc(-c2csc(S(N)(=O)=O)c2)no1 [B03] | 231 ± 43 |  | 
31 | NS(=O)(=O)c1ccc(-c2ccc(=O)[nH]n2)s1 [B04] | 393 ± 185 | 3.6 ± 0.4 | 
32 | NS(=O)(=O)c1cc(-c2noc(C3CC3)n2)cs1 [B05] | 448 ± 166 | 0.88 ± 0.08 | 
33 | Cc1ccc(-c2noc(N)c2S(N)(=O)=O)cc1S(N)(=O)=O [B06] | 573 ± 154 | 6 ± 0.6 | 
34 | NS(=O)(=O)c1cnn(-c2ccc(Cl)c(S(N)(=O)=O)c2)c1 [B07] | 941 ± 1740 | 0.008 ± 0.001 | 
35 | Cc1nn(-c2ccc(Cl)c(S(N)(=O)=O)c2)c(C)c1S(N)(=O)=O [B08] |  | 0.008 ± 0.001 | 
36 | Nc1onc(-c2csc(S(N)(=O)=O)c2)c1S(N)(=O)=O [B09] | 2130 | 24.6 ± 2.5 | 
37 | Cc1nn(-c2cc(S(N)(=O)=O)ccc2Cl)c(C)c1S(N)(=O)=O [B10] |  | 0.008 ± 0.01 | 
38 | Cc1ccccc1-n1nc(C)c(S(N)(=O)=O)c1C [B11] |  | 0.091 ± 0.01 | Melanin binding affinity Kd ± confidence [1]: Not detectable
39 | NS(=O)(=O)Nc1ccc(F)cc1F [C01] | 92 ± 25 | 76.3 ± 7.6 | 
40 | NS(=O)(=O)NCc1cccc2ccccc12 [C02] | 122 ± 40 | 5250 ± 525 | 

Row | Structure (SMILES) | Kd [1] [µM] | Ki [2] [nM] | other results
41 | NS(=O)(=O)NCc1ccc(F)cc1 [C03] | 361 ± 700 | 70.5 ± 7.1 | 
42 | NS(=O)(=O)N1CCC(O)CC1 [C04] | 405 ± 311 | 42.7 ± 4.3 | 
43 | NS(=O)(=O)NCC1CCCO1 (stereo not drawn) [C05] | 412 ± 802 | 63.4 ± 6.3 | 
44 | NS(=O)(=O)Nc1ccc(C(F)(F)F)cc1 [C06] | 582 ± 465 | 37.8 ± 3.8 | 
45 | NS(=O)(=O)NCCc1ccc(S(=O)(=O)N2CCCC2)cc1 [C07] | 596 ± 264 | 43.5 ± 4.4 | 
46 | NS(=O)(=O)Nc1cccc2ccccc12 [C08] | 1050 ± 2070 | 56.7 ± 5.7 | 
47 | NS(=O)(=O)N1CCc2ccccc2C1 [C09] | 1120 ± 2350 | 32.8 ± 3.3 | 
48 | CCN(CC)CCN(C)S(N)(=O)=O [C10] | 1520 ± 4030 | 92.3 ± 9.2 | 
49 | CN(C)CCN(Cc1ccccc1)S(N)(=O)=O [C11] | 1620 ± 4530 | 39.8 ± 4 | 
50 | CN1CCC(NS(N)(=O)=O)CC1 [C12] | 1680 ± 3480 | 52.1 ± 5.2 | 
51 | CC1Cc2ccccc2N1S(N)(=O)=O (stereo not drawn) [C13] | 1700 | 316 ± 31.6 | 
52 | NS(=O)(=O)N1CCC(N2CCCCC2)CC1 [C14] |  | 99.3 ± 9.9 | 
53 | NS(=O)(=O)N1CCCc2ccccc21 [C15] |  | 89.5 ± 9 | 
54 | NS(=O)(=O)NC1CCCc2ccccc21 (stereo not drawn) [C16] | 25000 | 42.6 ± 4.3 | 
55 | CC(C)(C)OC(=O)N1CCN(S(N)(=O)=O)CC1 [C17] |  | 16.2 ± 1.6 | Melanin binding affinity Kd ± confidence [1]: Not detectable
56 | COC(=O)C1CCCN1S(N)(=O)=O (stereo not drawn) [C18] |  | 69.8 ± 7 | Melanin binding affinity Kd ± confidence [1]: Not detectable
57 | NS(=O)(=O)N1CCc2ccccc21 [C19] |  | 472 ± 47.2 | Melanin binding affinity Kd ± confidence [1]: Not detectable
58 | CCOC(=O)C1CCN(S(N)(=O)=O)CC1 [C20] |  | 42.8 ± 4.3 | Melanin binding affinity Kd ± confidence [1]: Not detectable
59 | NS(=O)(=O)N1CCOCC1 [C21] |  | 66.9 ± 7 | Melanin binding affinity Kd ± confidence [1]: Not detectable
60 | NC(=O)C1CCN(S(N)(=O)=O)CC1 [C22] |  | 59.4 ± 6 | Melanin binding affinity Kd ± confidence [1]: Not detectable
